The results in this text go back to patent publication EP3150203B1, “COMPOUNDS WITH (1E,6E)-1,7-BIS-(3,4- DIMETHOXYPHENYL)-4,4-DISSTITUTED-HEPA-1,6-DIENE-3,5-DI-ONE STRUCTURAL SCAFFOLD,THEIR BIOLOGICAL ACTIVITY, AND USES THEREOF” (Allianz Pharmascience Ltd, priority 2012, dated 2013).

Some results are limits rather than exact numbers.

The target of the first experiment is T1, Androgen Receptor (AR) (Homo sapiens, UniProt P10275, H875Y, form not given).
T1 sequence (P10275 1-920 H875Y): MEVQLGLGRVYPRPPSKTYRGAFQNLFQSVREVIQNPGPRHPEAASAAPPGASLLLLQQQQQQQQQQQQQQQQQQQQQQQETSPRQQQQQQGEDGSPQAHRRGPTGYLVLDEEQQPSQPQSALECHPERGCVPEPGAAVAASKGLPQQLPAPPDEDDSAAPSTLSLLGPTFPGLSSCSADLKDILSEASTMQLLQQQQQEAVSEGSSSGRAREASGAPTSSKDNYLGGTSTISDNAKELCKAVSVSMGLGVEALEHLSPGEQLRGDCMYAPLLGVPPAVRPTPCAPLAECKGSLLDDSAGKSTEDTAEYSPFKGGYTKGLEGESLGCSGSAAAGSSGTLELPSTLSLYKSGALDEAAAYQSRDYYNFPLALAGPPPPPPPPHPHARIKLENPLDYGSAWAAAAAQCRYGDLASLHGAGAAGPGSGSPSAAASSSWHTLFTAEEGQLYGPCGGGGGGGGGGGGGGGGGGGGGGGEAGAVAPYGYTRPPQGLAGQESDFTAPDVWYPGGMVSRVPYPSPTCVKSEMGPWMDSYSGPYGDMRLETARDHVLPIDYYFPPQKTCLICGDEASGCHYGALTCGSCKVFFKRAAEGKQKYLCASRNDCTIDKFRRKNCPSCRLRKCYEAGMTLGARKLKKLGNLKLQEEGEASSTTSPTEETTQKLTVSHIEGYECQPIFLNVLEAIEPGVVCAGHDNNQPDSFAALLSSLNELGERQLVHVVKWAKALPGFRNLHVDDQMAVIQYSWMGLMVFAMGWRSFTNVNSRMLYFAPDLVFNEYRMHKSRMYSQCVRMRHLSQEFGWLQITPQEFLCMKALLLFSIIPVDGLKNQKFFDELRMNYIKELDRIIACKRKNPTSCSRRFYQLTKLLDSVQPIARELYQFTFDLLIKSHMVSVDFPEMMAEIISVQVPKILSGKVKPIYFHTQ
Kind of experiment: Western Blot analysis of AR protein expression in CWR22Rv1 cells. It counts as cell-based. The settings on record: Western blotting, 24 h post-incubation, read-out: Reduction of AR expression IC50 (µM) 24 h.
A word on the IC50: it is the concentration that gives 50% inhibition. As to `COc1ccc(/C=C/C(=O)C(C)(CC(=O)N2CCOCC2)C(=O)/C=C/c2ccc(OC)c(OC)c2)cc1OC` [Compound 11], the IC50 is 2.2 µM.
`COc1ccc(/C=C/C(=O)C(F)(CC(=O)N(C)C)C(=O)/C=C/c2ccc(OC)c(OC)c2)cc1OC` [Compound 18]: the IC50 was greater than 5 µM.
Same read-out and setting: the result for `CCOC(=O)CCC(C)(C(=O)/C=C/c1ccc(OC)c(OC)c1)C(=O)/C=C/c1ccc(OC)c(OC)c1` [Compound 22] reads 1.8 µM; that for `CCOC(=O)CCC(F)(C(=O)/C=C/c1ccc(OC)c(OC)c1)C(=O)/C=C/c1ccc(OC)c(OC)c1` [Compound 23], greater than 5 µM.
On the same count and under the same terms, the same measure for `CCN(CC)C(=O)CC(C)(C(=O)C=CC=Cc1ccc(OC)c(OC)c1)C(=O)C=CC=Cc1ccc(OC)c(OC)c1` (stereo not drawn) [Compound 32]: 2.8 µM.

Still in this experiment, the particulars now being: Western blotting, 48 h post-incubation, read-out: Reduction of AR expression IC50 (µM) 48 h.
In the case of `COc1ccc(/C=C/C(=O)C(C)(CC2CC2)C(=O)/C=C/c2ccc(OC)c(OC)c2)cc1OC` [Compound 1], the IC50 was determined as 2.1 µM.
As to `COc1ccc(/C=C/C(=O)C(C)(CC2CCCCC2)C(=O)/C=C/c2ccc(OC)c(OC)c2)cc1OC` [Compound 5], the IC50 was determined as 4 µM.

The subject of the next experiment is CWR22Rv1 cells (human prostate cancer). Kind of experiment: MTT cell growth assay, CWR22Rv1 cells. It counts as cell-based. Conditions: 5 days, read-out: Inhibition of Tumor cells growth IC50. As for the experimental part:
The MTT cell proliferation assay was applied in the present invention to detect the capability of compounds to suppress or inhibit prostate cancer cells growth. […] Briefly, 1 x 10^3 LNCaP or CWR22Rv1 cells suspended in complete medium were plated into each well of a 96-well Microtest III tissue culture plate (Falcon, NJ). Two days later, the medium was replaced with RPMI-1640 medium containing 10% charcoal/dextran-deprived FBS (hormone-deprived fetal bovine serum). Testing compounds were added to the medium at indicated concentrations with or without 1 nM DHT and cells were cultured for 5 days in an incubator (at 37 °C). MTT substrate solution (5 mg/ml in PBS) in 1/10 of volume was added to the cells in each well at 2 hours before harvesting. After 2 hour incubation, the plates were centrifuged (10 min at 1,000 rpm) and the supernatant from each well was carefully removed. A 100 µl of lysis buffer (50% dimethyl formamide, 5% sodium dodecyl sulphate, 0.35 M acetic acid, and 50 mM HCl) was added to each well to lyse the cells and dissolved tetrazolium in each well. The relative quantity of enzyme activity from each well was measured based on absorbance read at a wavelength of 450 nm using a Bio-RAD BenchMark microplate reader. Data derived from the MTT assay were also verified by the actual cell count and cell morphology on a separate plate set up in parallel.
For inhibition of tumor cell growth, in vitro, cells were growth in the presence of testing compounds for 5 days, and the cell growth was assayed by standard MTT assay. […] Table 2: Biological activity of Compounds and Derivatives having (1E, 6E)-1,7-bis-(3,4-dimethoxyphenyl)-4,4-disubstituted-hepta-1,6-diene-3,5-dione OR (1E, 10E)-1,11-bis(substituted phenyl)- 6,6-disubstituted undeca-1,3,8,10-tetraene-5,7-dione structural scaffold
On the technique in general: Tetrazolium assays rely on reduction of a dye to a coloured formazan, in cell work by metabolically active cells.
In the case of `COc1ccc(/C=C/C(=O)C(C)(CC2CC2)C(=O)/C=C/c2ccc(OC)c(OC)c2)cc1OC` [Compound 1], the half-maximal inhibitory concentration (IC50) amounted to 2.4 µM.
On the same count and under the same terms, the result for `COc1ccc(/C=C/C(=O)C(C)(CC2CCCCC2)C(=O)/C=C/c2ccc(OC)c(OC)c2)cc1OC` [Compound 5] reads 4.6 µM; that for `COc1ccc(/C=C/C(=O)C(F)(CC(=O)N(C)C)C(=O)/C=C/c2ccc(OC)c(OC)c2)cc1OC` [Compound 18], greater than 7.5 µM.

Still in this experiment, the particulars now being: Homo sapiens, 120 h, 5 days, read-out: Inhibition of Tumor cells growth IC50.
For the compound `COc1ccc(/C=C/C(=O)C(C)(CC2CCC2)C(=O)/C=C/c2ccc(OC)c(OC)c2)cc1OC` [Compound 2], the IC50 is greater than 7.5 µM.
`COc1ccc(/C=C/C(=O)C(C)(CC2CCCC2)C(=O)/C=C/c2ccc(OC)c(OC)c2)cc1OC` [Compound 4]: the IC50 came to 2.6 µM.
Consider `CCCCC(C)(C(=O)/C=C/c1ccc(OC)c(OC)c1)C(=O)/C=C/c1ccc(OC)c(OC)c1` [Compound 8], for which the 50% inhibitory concentration (IC50) stood at 2.3 µM.
On the same count and under the same terms, the same measure for `COc1ccc(/C=C/C(=O)C(F)(CC2CC2)C(=O)/C=C/c2ccc(OC)c(OC)c2)cc1OC` [Compound 13]: greater than 5 µM; for `COc1ccc(/C=C/C(=O)C(F)(CC2CCC2)C(=O)/C=C/c2ccc(OC)c(OC)c2)cc1OC` [Compound 14]: 3.6 µM; for `COc1ccc(/C=C/C(=O)C(F)(CC2CCCC2)C(=O)/C=C/c2ccc(OC)c(OC)c2)cc1OC` [Compound 15]: 3.2 µM.
Still for that read-out and setting: the result for `COc1ccc(/C=C/C(=O)C(F)(CC2CCCCC2)C(=O)/C=C/c2ccc(OC)c(OC)c2)cc1OC` [Compound 16] reads 4 µM; that for `CCN(CC)C(=O)CC(F)(C(=O)/C=C/c1ccc(OC)c(OC)c1)C(=O)/C=C/c1ccc(OC)c(OC)c1` [Compound 17], greater than 7.5 µM.
As to `CCCCC(F)(C(=O)C=Cc1ccc(OC)c(OC)c1)C(=O)C=Cc1ccc(OC)c(OC)c1` (stereo not drawn) [Compound 19], the IC50 stood at 4.7 µM.
For `CCN(CC)C(=O)CC(Cl)(C(=O)/C=C/c1ccc(OC)c(OC)c1)C(=O)/C=C/c1ccc(OC)c(OC)c1` [Compound 20], the IC50 came out at 4 µM.
`COc1ccc(/C=C/C(=O)C(Cl)(CC(=O)N(C)C)C(=O)/C=C/c2ccc(OC)c(OC)c2)cc1OC` [Compound 21]: the IC50 was greater than 7.5 µM.
